# Measured values taken from PMC6277434, “Discovery of a potent HMG-CoA reductase degrader that eliminates statin-induced reductase accumulation and lowers cholesterol” (Nature Communications, 2018).
# Target: T1, K89R/K248R HMGCR (Cricetulus griseus, UniProt P00347, K248R/K89R)
# T1 sequence (P00347 1-887 K89R/K248R): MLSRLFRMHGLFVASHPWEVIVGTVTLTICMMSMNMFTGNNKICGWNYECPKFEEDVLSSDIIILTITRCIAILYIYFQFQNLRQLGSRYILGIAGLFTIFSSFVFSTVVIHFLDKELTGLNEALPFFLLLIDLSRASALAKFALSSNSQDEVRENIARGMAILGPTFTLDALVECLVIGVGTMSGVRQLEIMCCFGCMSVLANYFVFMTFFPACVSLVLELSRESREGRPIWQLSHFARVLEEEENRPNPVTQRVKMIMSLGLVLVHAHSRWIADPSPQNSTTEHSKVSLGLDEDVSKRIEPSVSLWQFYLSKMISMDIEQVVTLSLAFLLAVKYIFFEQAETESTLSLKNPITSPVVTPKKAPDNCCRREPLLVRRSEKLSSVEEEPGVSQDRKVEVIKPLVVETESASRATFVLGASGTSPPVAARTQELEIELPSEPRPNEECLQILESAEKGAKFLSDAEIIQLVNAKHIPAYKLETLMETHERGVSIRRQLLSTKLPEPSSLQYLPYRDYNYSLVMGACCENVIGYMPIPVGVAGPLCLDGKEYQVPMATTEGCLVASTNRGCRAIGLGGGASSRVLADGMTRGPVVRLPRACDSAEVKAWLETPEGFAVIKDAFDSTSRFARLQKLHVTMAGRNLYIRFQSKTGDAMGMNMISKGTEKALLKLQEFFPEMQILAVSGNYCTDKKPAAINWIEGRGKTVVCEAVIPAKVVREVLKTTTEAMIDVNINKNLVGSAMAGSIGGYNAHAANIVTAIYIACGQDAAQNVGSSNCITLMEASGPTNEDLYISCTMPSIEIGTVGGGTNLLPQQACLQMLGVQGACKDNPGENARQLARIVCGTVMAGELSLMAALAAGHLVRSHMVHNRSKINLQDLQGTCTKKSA
# Experiment: Degradation of transfected K89R/K248R HMGCR in CHO-7 cells
# Type: cell-based
# Set-up: expressed in transfected cells; host or cells: CHO-7 (A20)
# Settings: transfected CHO-7 cells, 5 h
# Procedure: HMGCR protein of DMSO-treated cells was defined as 100. […] Lysates were immunoprecipitated and pellets were probed for anti-ubiquitin (P4D1) and anti-HMGCR (A9). e CHO-7 cells were transfected with indicated plasmids and treated as in d. Lysates were immunoprecipitated with anti-Flag M2 beads, and pellets were probed for anti-ubiquitin (HA) and anti-HMGCR (Flag). f CHO-7 cells were transfected with indicated plasmids, then treated with Cmpd 81 for 5 h. […] Data are from three independent experiments and presented as mean ± SD. Source data are provided as a Source Data File.
# Cells were harvested and homogenized in the RIPA buffer (50 mM Tris-HCl, pH 8.0, 150 mM NaCl, 2 mM MgCl2, 1.5% NP-40, 0.1% SDS, and 0.5% sodium deoxycholate) supplemented with protease cocktail inhibitor, 10 μM MG-132, 10 μg ml^−1 leupeptin and 1 mM phenylmethylsulfonyl fluoride. The protein concentrations of lysates were determined using BCA method (Beyotime). […] Western blot images were captured by Amersham Imager 600 (GE Healthcare), and integrated optical intensities of each band were quantified by Image-Pro Plus 6 software (Media Cybernetics). […]
compound,measurement,value
C=CCC(O)(CC=C)CCCC(C)C1CCC2C3C(O)C=C4C(C)(C)C(O)CCC4(C)C3CCC12C (stereo not shown) [Cmpd 81],degradation of K89R/K248R HMGCR,blunted the effect
